Key:
[1] = Knoop microhardness repair of acid-etched bovine enamel blocks after treatment and remineralization; settings: 1% citric acid etch 10 min, 40 microliters for ten minutes at room temperature, Remineralization Solution overnight at 37° C.
Experimental: Bovine enamel blocks are obtained from sound bovine incisors without defects. The labial surface of the bovine teeth is cut to provide enamel specimens of about 3×3×2 mm in size. The enamel layer is about 1 mm thick and the dentin left in the specimen is about 1 mm thick.
Etched enamel samples are prepared by treatment with 1% aqueous citric acid (pH 3.6) for 10 minutes, followed by rinsing with deionized water. Three bovine enamel blocks are prepared, one for the test solution, one for a positive control solution, and one for a negative control solution.
Etched bovine enamel samples are treated with 40 microliters of the polyelectrolyte solution A, with sodium fluoride solution, or with water, for ten minutes at room temperature. […]
Knoop Hardness (KHN) is a measure of hardness of a material calculated by measuring the indentation produced by a diamond tip that is pressed onto the surface of a sample. Using a calibrated microscope, the area of the impression can be determined, and from the area of the indentation (D) in […], and the applied load (F) in kilograms force, the Knoop Hardness is calculated as: KHN=14.229(F/D^2). […]
KHN is determined using Knoop microhardness tester. […] A value for Percentage of Hardness Repair (% HR) is calculated according to the following formula: […]

[2] = Single-block enamel repair evaluation, solution samples (Keyence microscope step height, light microscopy, SEM); parameters: species or system bovine
Experimental: The left half of the block (“sound”) is covered using an acid-resistant nail polish, which is then allowed to air dry. The right half of the block (“damaged” and “repaired”) is then treated with 1% citric acid (pH 3.6) for ten minutes to etch the surface. After the treatment, the surface of the block is rinsed with deionized water. The top right corner of the block (“damaged”) is then covered with the same acid-resistant nail polish and air dried. The test formulation is then applied to the bottom right corner of the block (“repaired”), for example, for a ten-minute treatment, followed by rinsing with deionized water. Following the treatment, the enamel blocks are immersed in a Remineralization Solution (0.2205 g/L CaCl2·2H2O, 0.1225 g/L KH2PO4, 9.6915 g/L KCl and 4.766 g/L HEPEs buffer, pH adjusted to 7 with NaOH) overnight at 37° C., and the process repeated for 2-4 days (the blocks immersed daily in fresh remineralization solution). Following this, the blocks are removed, rinsed with deionized water and air dried. The nail polish covers are then removed using acetone solvent, and the surface of the enamel blocks is visualized, for example, by light microscopy, confocal laser scanning microscopy, scanning probe microscopy, or scanning electron microscopy.
A Keyence microscope is used to capture the surface morphology and to measure the step height of the treated samples. A Phenom ProX Desktop scanning electron microscope is used to observe the repaired enamel crystals. Bovine enable blocks are treated with either water, the sodium fluoride solution, or the 10 mg/mL ePL+0.06 mg/mL malic acid solution (Solution A above).

For [F-].[Na+] [NaF Control, sodium fluoride], the “% HR (Percentage of Hardness Repair)” value [1] was 41.0%, the “% HR (Percentage of Hardness Repair)” value ([1]; listed as sodium fluoride) was “did not reach half of original hardness levels” and the “% Repair (Step height)” value ([2]; 1% citric acid etch 10 min, ten-minute treatment, remineralization repeated 2-4 days) was 65.3%. For the same molecule, the “enamel surface gaps, scanning electron microscopy” value ([2]; gaps from acid etching) was “some healing”, the “surface elevation, 3-D Keyence photomicrographs (FIG. 3)” value ([2]; height vs sound enamel side) was “do not restore the enamel to the original height” and the “surface morphology of repaired side, light microscopy (FIG. 2)” value ([2]; repaired vs damaged side of same block) was “a clear interface between “damaged” and “repaired” sides is observed”.

From patent publication US20240201173A1, “Enamel Repair Visualization and Quantification” (Colgate-Palmolive Company, priority 2022, published 2024)
